These results are taken from ChEMBL document CHEMBL5465560, “Selectivity Literature for EUbOPEN Chemogenomic Library” (2024).

In assay [1] the target is Serine/threonine-protein kinase WNK3 (Homo sapiens) (UniProt Q9BYP7). In words: Selectivity interaction (Upstate Kinase Profiler service (Millipore)) EUB0000056c WNK3. The conditions noted are these: at 1 µM.
Assay [2] deals with Glycogen synthase kinase-3 beta (Homo sapiens, UniProt P49841). The conditions noted are these: at 10 µM.
In assay [3] the target is T1, Myosin-IIIb (Homo sapiens) (UniProt Q8WXR4).
T1 sequence (whole entry): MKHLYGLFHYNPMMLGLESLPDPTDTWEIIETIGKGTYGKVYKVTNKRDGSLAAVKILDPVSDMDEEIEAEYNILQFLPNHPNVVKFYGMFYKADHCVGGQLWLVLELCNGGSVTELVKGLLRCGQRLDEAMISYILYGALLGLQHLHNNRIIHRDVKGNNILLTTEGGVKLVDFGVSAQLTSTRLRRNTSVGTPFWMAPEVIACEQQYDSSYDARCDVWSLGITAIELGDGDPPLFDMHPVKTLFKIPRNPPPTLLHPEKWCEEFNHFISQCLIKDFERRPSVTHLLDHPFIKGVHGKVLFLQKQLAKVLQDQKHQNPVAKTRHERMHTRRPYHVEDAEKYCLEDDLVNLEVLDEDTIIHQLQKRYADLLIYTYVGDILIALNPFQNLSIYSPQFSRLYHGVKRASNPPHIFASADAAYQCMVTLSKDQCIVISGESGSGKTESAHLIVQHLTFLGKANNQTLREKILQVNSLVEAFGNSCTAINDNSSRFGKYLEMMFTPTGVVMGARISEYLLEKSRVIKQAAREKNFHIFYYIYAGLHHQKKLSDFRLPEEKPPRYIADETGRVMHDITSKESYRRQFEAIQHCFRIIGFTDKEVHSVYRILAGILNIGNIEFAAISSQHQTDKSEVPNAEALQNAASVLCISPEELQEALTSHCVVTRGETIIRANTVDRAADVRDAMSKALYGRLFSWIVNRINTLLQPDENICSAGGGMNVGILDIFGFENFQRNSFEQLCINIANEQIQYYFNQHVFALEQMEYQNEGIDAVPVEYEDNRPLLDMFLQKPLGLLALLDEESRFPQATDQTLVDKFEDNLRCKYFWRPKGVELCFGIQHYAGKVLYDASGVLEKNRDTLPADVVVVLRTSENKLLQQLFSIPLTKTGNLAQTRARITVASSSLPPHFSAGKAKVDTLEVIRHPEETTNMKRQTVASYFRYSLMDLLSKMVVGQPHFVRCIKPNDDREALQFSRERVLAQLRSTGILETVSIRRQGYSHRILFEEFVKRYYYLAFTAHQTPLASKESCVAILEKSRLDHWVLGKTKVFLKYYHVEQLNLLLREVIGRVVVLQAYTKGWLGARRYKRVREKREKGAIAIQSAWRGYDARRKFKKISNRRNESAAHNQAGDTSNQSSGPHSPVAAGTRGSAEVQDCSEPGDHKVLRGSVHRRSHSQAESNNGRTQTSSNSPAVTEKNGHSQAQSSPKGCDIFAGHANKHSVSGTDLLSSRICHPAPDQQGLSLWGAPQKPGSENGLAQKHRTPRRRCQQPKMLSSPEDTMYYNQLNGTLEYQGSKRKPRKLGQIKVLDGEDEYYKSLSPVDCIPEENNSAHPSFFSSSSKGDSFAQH
In words: Selectivity interaction (Ambit KINOMEscan and KiNATiv profiling in Jurkat cells) EUB0000090b MYO3B. It is filed as cell-based. The note with it: at 1 µM.

In assay [4] the target is Serine/threonine-protein kinase MRCK beta (Homo sapiens) (UniProt Q9Y5S2). In words: Selectivity interaction (KinomeScan (DiscoverX)) EUB0001079a CDC42BPB. The note with it: at 1 µM.
The target of assay [5] is T2, Phosphatidylinositol 4,5-bisphosphate 3-kinase catalytic subunit delta isoform (Homo sapiens) (UniProt O00329).
T2 sequence (whole entry): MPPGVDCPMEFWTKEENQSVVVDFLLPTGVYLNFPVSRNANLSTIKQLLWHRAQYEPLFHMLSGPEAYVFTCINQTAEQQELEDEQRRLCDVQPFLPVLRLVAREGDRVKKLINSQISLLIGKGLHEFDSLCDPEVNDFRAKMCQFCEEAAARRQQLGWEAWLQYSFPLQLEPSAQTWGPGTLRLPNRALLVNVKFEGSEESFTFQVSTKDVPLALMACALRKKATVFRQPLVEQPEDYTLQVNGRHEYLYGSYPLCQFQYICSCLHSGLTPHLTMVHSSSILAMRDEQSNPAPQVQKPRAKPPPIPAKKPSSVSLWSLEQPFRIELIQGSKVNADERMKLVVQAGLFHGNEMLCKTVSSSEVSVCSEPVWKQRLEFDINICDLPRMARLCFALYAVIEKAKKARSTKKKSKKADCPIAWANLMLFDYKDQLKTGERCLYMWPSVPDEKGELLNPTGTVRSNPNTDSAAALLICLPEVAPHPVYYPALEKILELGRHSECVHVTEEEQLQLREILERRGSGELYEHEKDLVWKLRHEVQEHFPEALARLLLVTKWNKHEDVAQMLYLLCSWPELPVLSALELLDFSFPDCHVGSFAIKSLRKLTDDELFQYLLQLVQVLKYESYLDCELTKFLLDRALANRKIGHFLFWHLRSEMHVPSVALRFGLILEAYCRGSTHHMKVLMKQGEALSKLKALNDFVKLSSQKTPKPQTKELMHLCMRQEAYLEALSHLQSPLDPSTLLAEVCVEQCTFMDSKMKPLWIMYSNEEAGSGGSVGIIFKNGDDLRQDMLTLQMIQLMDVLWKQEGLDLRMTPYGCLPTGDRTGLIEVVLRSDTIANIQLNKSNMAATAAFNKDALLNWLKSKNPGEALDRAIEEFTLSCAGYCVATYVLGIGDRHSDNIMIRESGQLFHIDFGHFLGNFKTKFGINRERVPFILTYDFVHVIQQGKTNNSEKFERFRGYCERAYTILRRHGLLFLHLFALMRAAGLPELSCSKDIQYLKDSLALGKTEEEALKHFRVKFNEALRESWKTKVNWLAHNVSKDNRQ
Put plainly: Selectivity interaction (Adapta Assay) EUB0001632a PIK3CD. The conditions noted are these: at 10 µM.

In assay [6] the test system is Phosphatidylinositol 4,5-bisphosphate 3-kinase catalytic subunit alpha isoform (Homo sapiens), P42336 [C420R]. The note with it: at 10 µM.
In assay [7] the target is Mitogen-activated protein kinase 14 (Homo sapiens, UniProt Q16539). In words: Selectivity interaction (Kinase panel (Invitrogen)) EUB0000639a MAPK14. The note with it: at 200 nM.
The test system of assay [8] is Epidermal growth factor receptor (Homo sapiens), P00533 [UNDEFINED MUTATION]. Put plainly: Selectivity interaction (KinomeScan (DiscoverX)) EUB0000229b EGFR. The note with it: at 1 µM.
The target of assay [9] is RAF proto-oncogene serine/threonine-protein kinase (Homo sapiens) (UniProt P04049). In words: Selectivity interaction (KinomeScan (DiscoverX)) EUB0001619a RAF1. The note with it: at 1 µM.
Chain of RAF proto-oncogene serine/threonine-protein kinase (Homo sapiens) (P04049 whole entry): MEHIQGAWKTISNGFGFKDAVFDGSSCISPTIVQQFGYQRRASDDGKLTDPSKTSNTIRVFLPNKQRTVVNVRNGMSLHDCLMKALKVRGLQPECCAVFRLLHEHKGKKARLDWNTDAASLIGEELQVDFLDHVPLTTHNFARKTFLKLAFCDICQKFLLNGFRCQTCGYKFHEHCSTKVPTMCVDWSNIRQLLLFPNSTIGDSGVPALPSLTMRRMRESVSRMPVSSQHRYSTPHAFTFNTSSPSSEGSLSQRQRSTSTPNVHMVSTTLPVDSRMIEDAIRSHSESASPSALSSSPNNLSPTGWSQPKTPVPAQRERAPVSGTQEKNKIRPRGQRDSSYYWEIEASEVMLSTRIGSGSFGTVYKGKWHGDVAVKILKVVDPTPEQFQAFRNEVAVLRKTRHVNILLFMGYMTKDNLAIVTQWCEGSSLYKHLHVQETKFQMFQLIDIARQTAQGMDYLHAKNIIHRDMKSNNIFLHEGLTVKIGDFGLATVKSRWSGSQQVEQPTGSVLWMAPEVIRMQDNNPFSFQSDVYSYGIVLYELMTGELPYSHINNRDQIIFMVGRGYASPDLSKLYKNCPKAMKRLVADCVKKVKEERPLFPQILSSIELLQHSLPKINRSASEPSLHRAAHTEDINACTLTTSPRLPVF

Chain of Serine/threonine-protein kinase WNK3 (Homo sapiens) (Q9BYP7 whole entry): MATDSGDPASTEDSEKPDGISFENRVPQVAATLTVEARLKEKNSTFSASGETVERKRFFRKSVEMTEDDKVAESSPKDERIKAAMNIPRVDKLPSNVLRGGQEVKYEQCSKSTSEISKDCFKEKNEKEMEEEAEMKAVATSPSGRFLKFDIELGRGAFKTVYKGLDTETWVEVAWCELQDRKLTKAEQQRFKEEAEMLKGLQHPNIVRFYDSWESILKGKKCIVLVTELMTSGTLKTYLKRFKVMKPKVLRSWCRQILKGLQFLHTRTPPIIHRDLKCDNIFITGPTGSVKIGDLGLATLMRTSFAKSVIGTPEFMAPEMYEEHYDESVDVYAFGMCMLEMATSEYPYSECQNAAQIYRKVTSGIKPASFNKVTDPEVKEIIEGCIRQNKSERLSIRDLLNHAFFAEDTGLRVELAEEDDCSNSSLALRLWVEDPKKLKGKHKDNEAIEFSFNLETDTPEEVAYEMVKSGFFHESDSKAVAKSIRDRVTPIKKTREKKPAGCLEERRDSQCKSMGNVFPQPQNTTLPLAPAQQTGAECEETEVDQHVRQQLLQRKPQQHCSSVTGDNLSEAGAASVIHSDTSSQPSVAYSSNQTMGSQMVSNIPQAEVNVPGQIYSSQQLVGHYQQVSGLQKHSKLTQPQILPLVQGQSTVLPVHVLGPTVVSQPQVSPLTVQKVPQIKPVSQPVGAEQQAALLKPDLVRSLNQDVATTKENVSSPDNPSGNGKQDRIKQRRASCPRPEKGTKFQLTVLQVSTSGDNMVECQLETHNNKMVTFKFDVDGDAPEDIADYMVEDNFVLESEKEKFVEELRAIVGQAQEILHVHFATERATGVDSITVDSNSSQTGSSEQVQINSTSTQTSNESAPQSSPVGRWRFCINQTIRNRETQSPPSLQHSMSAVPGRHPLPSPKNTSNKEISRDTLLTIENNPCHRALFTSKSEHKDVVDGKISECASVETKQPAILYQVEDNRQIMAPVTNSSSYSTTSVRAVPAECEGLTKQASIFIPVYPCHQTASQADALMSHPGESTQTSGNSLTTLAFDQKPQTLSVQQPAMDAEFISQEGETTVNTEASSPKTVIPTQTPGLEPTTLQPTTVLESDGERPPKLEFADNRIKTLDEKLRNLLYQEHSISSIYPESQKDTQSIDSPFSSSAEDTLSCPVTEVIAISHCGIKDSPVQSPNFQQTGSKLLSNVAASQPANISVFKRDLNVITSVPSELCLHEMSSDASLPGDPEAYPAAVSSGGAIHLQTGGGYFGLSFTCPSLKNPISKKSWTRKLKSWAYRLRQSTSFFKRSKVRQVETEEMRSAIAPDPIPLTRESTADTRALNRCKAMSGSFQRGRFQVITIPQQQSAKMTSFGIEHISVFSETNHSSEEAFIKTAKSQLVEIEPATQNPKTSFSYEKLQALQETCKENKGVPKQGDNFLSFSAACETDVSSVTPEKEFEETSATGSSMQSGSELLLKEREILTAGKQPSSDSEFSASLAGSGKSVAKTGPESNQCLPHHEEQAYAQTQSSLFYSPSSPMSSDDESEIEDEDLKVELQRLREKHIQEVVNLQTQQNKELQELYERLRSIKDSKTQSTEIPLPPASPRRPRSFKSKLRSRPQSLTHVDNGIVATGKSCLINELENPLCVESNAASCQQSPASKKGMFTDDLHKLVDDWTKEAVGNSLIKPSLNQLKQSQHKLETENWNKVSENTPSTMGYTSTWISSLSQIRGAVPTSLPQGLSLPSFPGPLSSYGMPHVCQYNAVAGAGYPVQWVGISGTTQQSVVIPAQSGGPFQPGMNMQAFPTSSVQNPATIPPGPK
Chain of Serine/threonine-protein kinase MRCK beta (Homo sapiens) (Q9Y5S2 whole entry, canonical isoform): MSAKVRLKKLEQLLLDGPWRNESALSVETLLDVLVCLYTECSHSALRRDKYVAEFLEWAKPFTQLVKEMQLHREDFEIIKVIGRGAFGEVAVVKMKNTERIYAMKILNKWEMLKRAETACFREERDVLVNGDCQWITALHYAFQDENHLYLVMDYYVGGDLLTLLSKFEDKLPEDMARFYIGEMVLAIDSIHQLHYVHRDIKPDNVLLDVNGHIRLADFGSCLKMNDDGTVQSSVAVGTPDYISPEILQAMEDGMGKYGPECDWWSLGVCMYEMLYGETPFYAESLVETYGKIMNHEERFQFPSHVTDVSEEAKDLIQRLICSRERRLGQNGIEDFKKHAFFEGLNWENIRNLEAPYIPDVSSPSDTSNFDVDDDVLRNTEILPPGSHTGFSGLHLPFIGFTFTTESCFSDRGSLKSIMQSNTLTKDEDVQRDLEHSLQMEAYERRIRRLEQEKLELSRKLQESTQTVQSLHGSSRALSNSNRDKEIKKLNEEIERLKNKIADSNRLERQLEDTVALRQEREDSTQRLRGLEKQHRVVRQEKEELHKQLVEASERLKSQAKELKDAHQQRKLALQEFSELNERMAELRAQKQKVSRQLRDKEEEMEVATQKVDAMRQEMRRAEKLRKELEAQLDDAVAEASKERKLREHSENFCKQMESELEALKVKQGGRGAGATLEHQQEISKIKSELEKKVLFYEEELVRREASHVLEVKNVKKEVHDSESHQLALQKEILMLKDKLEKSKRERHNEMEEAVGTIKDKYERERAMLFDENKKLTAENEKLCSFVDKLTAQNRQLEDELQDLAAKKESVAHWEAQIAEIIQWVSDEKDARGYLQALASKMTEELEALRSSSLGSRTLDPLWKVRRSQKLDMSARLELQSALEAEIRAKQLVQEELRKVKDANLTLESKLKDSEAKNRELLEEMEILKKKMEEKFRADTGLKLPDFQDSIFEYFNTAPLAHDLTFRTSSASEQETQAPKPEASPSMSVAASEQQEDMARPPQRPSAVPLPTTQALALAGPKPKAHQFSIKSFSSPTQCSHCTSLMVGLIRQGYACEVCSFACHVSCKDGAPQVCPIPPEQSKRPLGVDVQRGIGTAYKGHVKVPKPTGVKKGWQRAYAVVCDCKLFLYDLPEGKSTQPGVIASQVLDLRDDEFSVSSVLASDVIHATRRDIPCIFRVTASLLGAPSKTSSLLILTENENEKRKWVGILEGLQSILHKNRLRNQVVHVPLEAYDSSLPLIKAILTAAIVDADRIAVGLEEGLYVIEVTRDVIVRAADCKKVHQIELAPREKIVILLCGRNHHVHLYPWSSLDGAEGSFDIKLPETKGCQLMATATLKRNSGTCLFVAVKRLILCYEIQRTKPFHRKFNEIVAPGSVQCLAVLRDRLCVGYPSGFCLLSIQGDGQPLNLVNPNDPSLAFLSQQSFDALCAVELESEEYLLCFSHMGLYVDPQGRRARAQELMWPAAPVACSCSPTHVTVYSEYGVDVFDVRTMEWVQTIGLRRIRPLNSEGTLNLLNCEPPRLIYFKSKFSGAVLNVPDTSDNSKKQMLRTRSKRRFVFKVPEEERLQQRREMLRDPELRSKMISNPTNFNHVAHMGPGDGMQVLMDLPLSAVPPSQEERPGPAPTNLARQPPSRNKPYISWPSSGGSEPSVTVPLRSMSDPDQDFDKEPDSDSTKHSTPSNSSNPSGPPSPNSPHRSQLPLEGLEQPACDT
Chain of Mitogen-activated protein kinase 14 (Q16539 whole entry): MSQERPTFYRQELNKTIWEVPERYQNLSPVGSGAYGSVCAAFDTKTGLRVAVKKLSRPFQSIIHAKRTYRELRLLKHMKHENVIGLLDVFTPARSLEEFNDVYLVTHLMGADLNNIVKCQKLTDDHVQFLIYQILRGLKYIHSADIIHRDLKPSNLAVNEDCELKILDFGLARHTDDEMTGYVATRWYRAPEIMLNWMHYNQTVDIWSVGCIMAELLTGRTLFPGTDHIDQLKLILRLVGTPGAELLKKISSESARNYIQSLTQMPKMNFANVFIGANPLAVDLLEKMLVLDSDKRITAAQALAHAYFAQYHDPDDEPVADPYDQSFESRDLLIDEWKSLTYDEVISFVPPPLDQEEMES
Chain of Glycogen synthase kinase-3 beta (P49841 whole entry, looked up): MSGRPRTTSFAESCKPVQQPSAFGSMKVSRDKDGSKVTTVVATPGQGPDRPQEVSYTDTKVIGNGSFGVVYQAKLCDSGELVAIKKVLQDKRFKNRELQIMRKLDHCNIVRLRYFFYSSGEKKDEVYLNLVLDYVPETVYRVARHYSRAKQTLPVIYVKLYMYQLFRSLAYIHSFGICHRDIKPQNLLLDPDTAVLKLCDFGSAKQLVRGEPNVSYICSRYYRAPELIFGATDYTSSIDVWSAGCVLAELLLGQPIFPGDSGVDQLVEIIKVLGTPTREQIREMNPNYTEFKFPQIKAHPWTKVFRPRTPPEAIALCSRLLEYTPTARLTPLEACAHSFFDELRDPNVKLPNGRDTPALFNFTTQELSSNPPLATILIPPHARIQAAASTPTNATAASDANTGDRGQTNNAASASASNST

Consider `Cc1ccc(-c2ccc3c(ccc4sc5c(c43)NC[C@@H](C)NC5=O)n2)cn1`, for which the % of inhibition in assay [1] was -1%.

As for `Cc1cc([C@@H](C)Nc2ccccc2C(=O)O)c2nc(N3CCOCC3)cc(=O)n2c1` [AZD-6482], the % of control in [2] amounted to 100%.

For `CN(C)C/C=C/C(=O)Nc1ccc(C(=O)N2CCCC(Nc3ncc(Cl)c(-c4c[nH]c5ccccc45)n3)C2)cc1` (centres undefined), in assay [3], the % of control was determined as 100%.

`Nc1cnc(N2CCc3cc(S(=O)(=O)Nc4c(F)cc(Cl)cc4F)cc(N4CCCC4=O)c32)nc1` [TP-020n]: the % of control in assay [4] turned out to be 95%.

As to `Cn1cc(-n2cnc3c(NCc4nc5cc(Cl)c(Cl)cc5[nH]4)nc(N4CCOCC4)nc32)cn1`, the % of inhibition in assay [5] worked out at 66.6%.

For the compound `CNC(=O)Nc1ccc(-c2nc(N3CC4CCC(C3)O4)c3cnn(C4CCC5(CC4)OCCO5)c3n2)cc1`, in assay [6], the % of control is 11%.

As for `CC[C@@H]1[C@H](F)C(=O)N[C@@H]1COc1nccc2cc(C(N)=O)c(OC)cc12` [ZIMLOVISERTIB], in assay [7], the % of inhibition was 18.3%.

As for `COc1cc(N(C)c2ccnc3ccc(C(F)(F)F)cc23)cc(OC)c1OC`, the % binding in [8] came out at 98%.

`N#Cc1cccc(-c2c[nH]c3ncnc(N4CCOCC4)c23)c1`: the % of control in assay [9] was found to be 71%.
